Reference: patent publication US12503438B2, “Compounds for the treatment of kinase-dependent disorders” (Exelixis, Inc., priority 2019, dated 2025)

Experiments:
Met = Met (Homo sapiens, UniProt P08581); assay: Met autophosphorylation ELISA in PC-3 cells; type: cell-based; set-up: endogenous in cells; host or cells: PC-3 prostate cancer cells (ATCC #CRL-1435); conditions: cellular activity, HGF-stimulated, phospho-Met ELISA, read-out: c-Met IC50
Outline: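 PC-3 cells serum-starved 3 h, treated 1 h with 8-point compound series (0.3% DMSO), then stimulated with 100 ng/mL human HGF for 10 min. Lysate phospho-Met (panTyr) measured by sandwich ELISA; IC50 from 4-parameter logistic fit against DMSO and reference-inhibitor controls.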

KDR = KDR (Homo sapiens, UniProt P35968); assay: KDR autophosphorylation ELISA in HUVEC cells; type: cell-based; set-up: endogenous in cells; host or cells: HUVEC (Lonza #C2519A); conditions: cellular activity, VEGF165-stimulated, phospho-KDR ELISA
Sequence of KDR (P35968 20-1356): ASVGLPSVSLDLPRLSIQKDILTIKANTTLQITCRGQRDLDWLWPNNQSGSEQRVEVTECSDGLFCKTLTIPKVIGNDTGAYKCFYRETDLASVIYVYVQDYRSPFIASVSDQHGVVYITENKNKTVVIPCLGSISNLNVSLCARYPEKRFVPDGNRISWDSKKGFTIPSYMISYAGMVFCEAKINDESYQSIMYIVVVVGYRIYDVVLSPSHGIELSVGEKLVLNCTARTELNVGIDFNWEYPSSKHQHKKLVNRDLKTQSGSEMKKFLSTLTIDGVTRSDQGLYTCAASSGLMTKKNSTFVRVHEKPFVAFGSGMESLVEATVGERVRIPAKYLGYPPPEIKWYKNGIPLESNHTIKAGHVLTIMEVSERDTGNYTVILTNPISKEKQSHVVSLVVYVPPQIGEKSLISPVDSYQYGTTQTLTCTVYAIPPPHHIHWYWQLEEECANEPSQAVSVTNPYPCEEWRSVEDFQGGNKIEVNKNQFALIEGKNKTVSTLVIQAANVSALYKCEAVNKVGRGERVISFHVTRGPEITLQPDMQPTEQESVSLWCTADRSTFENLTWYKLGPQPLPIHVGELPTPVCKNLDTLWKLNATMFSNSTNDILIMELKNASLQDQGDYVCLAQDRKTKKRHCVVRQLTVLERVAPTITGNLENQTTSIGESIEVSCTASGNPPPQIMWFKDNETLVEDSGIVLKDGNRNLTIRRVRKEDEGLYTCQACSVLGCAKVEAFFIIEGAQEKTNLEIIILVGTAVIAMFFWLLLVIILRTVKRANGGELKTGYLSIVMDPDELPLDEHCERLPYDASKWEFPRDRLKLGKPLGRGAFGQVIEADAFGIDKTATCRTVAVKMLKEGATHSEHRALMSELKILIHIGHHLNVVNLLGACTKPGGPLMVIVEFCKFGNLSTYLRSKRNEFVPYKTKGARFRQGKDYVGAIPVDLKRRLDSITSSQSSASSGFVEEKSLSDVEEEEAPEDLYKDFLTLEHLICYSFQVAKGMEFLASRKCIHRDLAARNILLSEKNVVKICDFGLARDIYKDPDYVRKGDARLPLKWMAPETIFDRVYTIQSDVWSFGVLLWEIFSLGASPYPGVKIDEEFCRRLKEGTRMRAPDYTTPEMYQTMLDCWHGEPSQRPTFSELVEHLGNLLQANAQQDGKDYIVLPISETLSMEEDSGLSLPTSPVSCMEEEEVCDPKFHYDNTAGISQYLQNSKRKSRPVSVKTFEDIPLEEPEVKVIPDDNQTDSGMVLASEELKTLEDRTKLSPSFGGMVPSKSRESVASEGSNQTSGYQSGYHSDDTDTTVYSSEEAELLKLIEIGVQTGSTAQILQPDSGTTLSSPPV
Outline: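 HUVECs grown 24 h at 37 °C, then serum-starved 24 h, were preincubated 1 h with an 8-point compound series (0.3% DMSO) and stimulated with 100 ng/mL human VEGF165 for 5 min. Phospho-KDR in lysates was measured by sandwich ELISA against a phospho-KDR standard; IC50 from 4-parameter logistic fit.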

Sequence of Met (P08581 25-1390): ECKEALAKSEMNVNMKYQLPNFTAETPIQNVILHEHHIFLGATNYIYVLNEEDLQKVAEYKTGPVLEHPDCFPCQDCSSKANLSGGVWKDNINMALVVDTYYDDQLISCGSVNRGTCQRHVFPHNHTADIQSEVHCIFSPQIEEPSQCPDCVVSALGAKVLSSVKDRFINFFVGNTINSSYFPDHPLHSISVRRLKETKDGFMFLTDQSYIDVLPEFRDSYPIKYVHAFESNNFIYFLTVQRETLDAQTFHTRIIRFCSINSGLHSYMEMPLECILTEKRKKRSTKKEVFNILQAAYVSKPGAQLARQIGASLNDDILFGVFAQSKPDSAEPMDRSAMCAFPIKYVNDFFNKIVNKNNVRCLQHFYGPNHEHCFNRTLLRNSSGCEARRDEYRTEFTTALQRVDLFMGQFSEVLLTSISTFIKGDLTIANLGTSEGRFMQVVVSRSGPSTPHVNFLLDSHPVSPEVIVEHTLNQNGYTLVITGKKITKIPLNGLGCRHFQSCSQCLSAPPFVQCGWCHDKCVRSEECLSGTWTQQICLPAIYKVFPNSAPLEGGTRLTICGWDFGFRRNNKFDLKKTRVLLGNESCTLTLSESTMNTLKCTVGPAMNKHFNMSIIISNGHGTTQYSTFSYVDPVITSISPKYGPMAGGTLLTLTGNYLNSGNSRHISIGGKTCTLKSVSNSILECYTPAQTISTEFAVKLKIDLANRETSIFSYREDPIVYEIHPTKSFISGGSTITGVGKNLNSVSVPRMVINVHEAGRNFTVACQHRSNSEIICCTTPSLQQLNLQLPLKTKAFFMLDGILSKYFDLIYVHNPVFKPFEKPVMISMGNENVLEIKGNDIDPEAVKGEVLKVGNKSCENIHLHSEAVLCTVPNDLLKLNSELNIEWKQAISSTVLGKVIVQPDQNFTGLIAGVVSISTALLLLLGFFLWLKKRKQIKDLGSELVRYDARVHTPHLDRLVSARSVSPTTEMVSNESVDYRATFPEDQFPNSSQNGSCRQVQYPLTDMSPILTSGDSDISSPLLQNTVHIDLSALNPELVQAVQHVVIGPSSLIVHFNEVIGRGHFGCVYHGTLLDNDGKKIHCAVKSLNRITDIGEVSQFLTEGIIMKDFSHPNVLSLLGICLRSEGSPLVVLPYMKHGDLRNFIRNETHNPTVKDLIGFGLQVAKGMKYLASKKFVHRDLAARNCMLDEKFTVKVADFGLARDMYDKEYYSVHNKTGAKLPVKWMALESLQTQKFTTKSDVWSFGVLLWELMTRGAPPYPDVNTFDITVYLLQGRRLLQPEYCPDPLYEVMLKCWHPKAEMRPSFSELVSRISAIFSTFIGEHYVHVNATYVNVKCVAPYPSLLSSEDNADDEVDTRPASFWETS

IC50 (Met) [nM]	IC50 (KDR) [nM]	SMILES
10 to 100	≤ 10	O=C(Nc1ccc(F)cc1)C1(C(=O)Nc2ccc(Oc3ccnc4cc(C5=CCOC5)ccc34)cc2)CC1 [Compound 95, 1-N-[4-[7-(2,5-Dihydrofuran-3-yl)quinolin-4-yl]oxyphenyl]-1-N′-(4-fluorophenyl)cyclopropane-1,1-dicarboxamide]
10 to 100	100 to 300	Cc1ccn(-c2ccc3c(Oc4ccc(NC(=O)C5(C(=O)Nc6ccc(F)cc6)CC5)cc4)ccnc3c2)n1 [Compound 91, 1-N′-(4-Fluorophenyl)-1-N-[4-[7-(3-methylpyrazol-1-yl)quinolin-4-yl]oxyphenyl]cyclopropane-1,1-dicarboxamide]
100 to 300	10 to 100	Cc1cc2c(Oc3ccc(NC(=O)C4(C(=O)Nc5ccc(F)cc5)CC4)cc3)ccnc2cc1-c1cc[nH]n1 [Compound 107, 1-N′-(4-Fluorophenyl)-1-N-[4-[6-methyl-7-(1H-pyrazol-3-yl)quinolin-4-yl]oxyphenyl]cyclopropane-1,1-dicarboxamide]
10 to 100	≤ 10	Cc1cn(-c2ccc3c(Oc4ccc(NC(=O)C5(C(=O)Nc6ccc(F)cc6)CC5)cc4)ccnc3c2)cn1 [Compound 87, 1-N′-(4-Fluorophenyl)-1-N-[4-[7-(4-methylimidazol-1-yl)quinolin-4-yl]oxyphenyl]cyclopropane-1,1-dicarboxamide]
10 to 100	10 to 100	O=C(Nc1ccc(F)cc1)C1(C(=O)Nc2ccc(Oc3ccnc4cc(-c5ccn(C6CC6)n5)ccc34)cc2)CC1 [Compound 98, 1-N-[4-[7-(1-Cyclopropylpyrazol-3-yl)quinolin-4-yl]oxyphenyl]-1-N′-(4-fluorophenyl)cyclopropane-1,1-dicarboxamide]
10 to 100	≤ 10	O=C(Nc1ccc(F)cc1)C1(C(=O)Nc2ccc(Oc3ccnc4cc(-c5cnn(CF)c5)ccc34)cc2)CC1 [Compound 94, 1-N-[4-[7-[1-(Fluoromethyl)pyrazol-4-yl]quinolin-4-yl]oxyphenyl]-1-N′-(4-fluorophenyl)cyclopropane-1,1-dicarboxamide]
10 to 100	10 to 100	Cc1cc(-c2ccc3c(Oc4ccc(NC(=O)C5(C(=O)Nc6ccc(F)cc6)CC5)cc4)ccnc3c2)nn1C [Compound 101, 1-N-[4-[7-(1,5-Dimethylpyrazol-3-yl)quinolin-4-yl]oxyphenyl]-1-N′-(4-fluorophenyl)cyclopropane-1,1-dicarboxamide]
10 to 100	10 to 100	Nc1n[nH]cc1-c1ccc2c(Oc3ccc(NC(=O)C4(C(=O)Nc5ccc(F)cc5)CC4)cc3)ccnc2c1 [Compound 90, 1-N-[4-[7-(3-Amino-1H-pyrazol-4-yl)quinolin-4-yl]oxyphenyl]-1-N′-(4-fluorophenyl)cyclopropane-1,1-dicarboxamide]
10 to 100	100 to 300	CC(=O)N1CCC(c2ccc3c(Oc4ccc(NC(=O)C5(C(=O)Nc6ccc(F)cc6)CC5)cc4)ccnc3c2)C1 (stereo not drawn) [Compound 92, 1-N-[4-[7-(1-Acetylpyrrolidin-3-yl)quinolin-4-yl]oxyphenyl]-1-N′-(4-fluorophenyl)cyclopropane-1,1-dicarboxamide]
10 to 100	≤ 10	Cc1cc(-c2ccc3c(Oc4ccc(NC(=O)C5(C(=O)Nc6ccc(F)cc6)CC5)cc4)ccnc3c2)n[nH]1 [Compound 99, 1-N′-(4-Fluorophenyl)-1-N-[4-[7-(5-methyl-1H-pyrazol-3-yl)quinolin-4-yl]oxyphenyl]cyclopropane-1,1-dicarboxamide]
10 to 100	> 300	CS(=O)(=O)N1CCC(c2ccc3c(Oc4ccc(NC(=O)C5(C(=O)Nc6ccc(F)cc6)CC5)cc4)ccnc3c2)C1 (stereo not drawn) [Compound 93, 1-N′-(4-Fluorophenyl)-1-N-[4-[7-(1-methylsulfonylpyrrolidin-3-yl)quinolin-4-yl]oxyphenyl]cyclopropane-1,1-dicarboxamide]
10 to 100	10 to 100	Cc1cc2c(Oc3cc(F)c(NC(=O)C4(C(=O)Nc5ccc(F)cc5)CC4)cc3F)ccnc2cc1-c1cnn(C)c1 [Compound 105, 1-N′-[2,5-Difluoro-4-[6-methyl-7-(1-methylpyrazol-4-yl)quinolin-4-yl]oxyphenyl]-1-N-(4-fluorophenyl)cyclopropane-1,1-dicarboxamide]
100 to 300	10 to 100	O=C(Nc1ccc(F)cc1)C1(C(=O)Nc2ccc(Oc3ccnc4cc(-c5cc6ccccn6n5)ccc34)cc2)CC1 [Compound 104, 1-N′-(4-Fluorophenyl)-1-N-[4-(7-pyrazolo[1,5-a]pyridin-2-ylquinolin-4-yl)oxyphenyl]cyclopropane-1,1-dicarboxamide]
10 to 100	10 to 100	Nc1cc(-c2ccc3c(Oc4ccc(NC(=O)C5(C(=O)Nc6ccc(F)cc6)CC5)cc4)ccnc3c2)ccn1 [Compound 97, 1-N-[4-[7-(2-Aminopyridin-4-yl)quinolin-4-yl]oxyphenyl]-1-N′-(4-fluorophenyl)cyclopropane-1,1-dicarboxamide]
100 to 300	10 to 100	Cc1cc2c(Oc3ccc(NC(=O)C4(C(=O)Nc5ccc(F)cc5)CC4)cc3)ccnc2cc1-c1ccn(C)n1 [Compound 108, 1-N′-(4-Fluorophenyl)-1-N-[4-[6-methyl-7-(1-methylpyrazol-3-yl)quinolin-4-yl]oxyphenyl]cyclopropane-1,1-dicarboxamide]
10 to 100	10 to 100	Cc1cnn(-c2ccc3c(Oc4ccc(NC(=O)C5(C(=O)Nc6ccc(F)cc6)CC5)cc4)ccnc3c2)c1 [Compound 96, 1-N′-(4-Fluorophenyl)-1-N-[4-[7-(4-methylpyrazol-1-yl)quinolin-4-yl]oxyphenyl]cyclopropane-1,1-dicarboxamide]
10 to 100	≤ 10	O=C(Nc1ccc(F)cc1)C1(C(=O)Nc2ccc(Oc3ccnc4cc(-c5ccn(CF)n5)ccc34)cc2)CC1 [Compound 102, 1-N-[4-[7-[1-(Fluoromethyl)pyrazol-3-yl]quinolin-4-yl]oxyphenyl]-1-N′-(4-fluorophenyl)cyclopropane-1,1-dicarboxamide]
100 to 300	10 to 100	O=C(Nc1ccc(F)cc1)C1(C(=O)Nc2ccc(Oc3ccnc4cc(-c5ccccc5)ccc34)cc2)CC1 [Compound 55, 1-N′-(4-Fluorophenyl)-1-N-[4-(7-phenylquinolin-4-yl)oxyphenyl]cyclopropane-1,1-dicarboxamide]
